# Experimental data: ChEMBL document CHEMBL5380823, “Application and Study of ROCK Inhibitors in Pulmonary Fibrosis: Recent Developments and Future Perspectives” (J Med Chem, 2023)
# Key:
# [1] = biological target: T1, Rho-associated protein kinase 2 (Homo sapiens, UniProt O75116); test: Inhibition of ROCK2 (unknown origin)
# [2] = biological target: Rho-associated protein kinase 1 (Homo sapiens, UniProt Q13464); test: Binding affinity to ROCK1 (unknown origin) assessed as inhibition constant
# [3] = biological target: T1, Rho-associated protein kinase 2; test: Binding affinity to ROCK2 (unknown origin) assessed as inhibition constant
# [4] = Half life in iv dosed Wistar rat at 0.5 mg/kg; type: ADME, organism-based; conditions: in vivo
# [5] = Oral bioavailability in Wistar rat at 1 mg/kg; type: ADME, organism-based; conditions: in vivo
# [6] = Oral bioavailability in BLM-induced Sprague-Dawley rat at 2 mg/kg measured upto 24 hrs; type: ADME, organism-based; conditions: in vivo
# [7] = Half life in BLM-induced Sprague-Dawley rat at 1 mg/kg, iv measured upto 24 hrs; type: ADME, organism-based; conditions: in vivo
# T1 sequence (O75116 whole entry): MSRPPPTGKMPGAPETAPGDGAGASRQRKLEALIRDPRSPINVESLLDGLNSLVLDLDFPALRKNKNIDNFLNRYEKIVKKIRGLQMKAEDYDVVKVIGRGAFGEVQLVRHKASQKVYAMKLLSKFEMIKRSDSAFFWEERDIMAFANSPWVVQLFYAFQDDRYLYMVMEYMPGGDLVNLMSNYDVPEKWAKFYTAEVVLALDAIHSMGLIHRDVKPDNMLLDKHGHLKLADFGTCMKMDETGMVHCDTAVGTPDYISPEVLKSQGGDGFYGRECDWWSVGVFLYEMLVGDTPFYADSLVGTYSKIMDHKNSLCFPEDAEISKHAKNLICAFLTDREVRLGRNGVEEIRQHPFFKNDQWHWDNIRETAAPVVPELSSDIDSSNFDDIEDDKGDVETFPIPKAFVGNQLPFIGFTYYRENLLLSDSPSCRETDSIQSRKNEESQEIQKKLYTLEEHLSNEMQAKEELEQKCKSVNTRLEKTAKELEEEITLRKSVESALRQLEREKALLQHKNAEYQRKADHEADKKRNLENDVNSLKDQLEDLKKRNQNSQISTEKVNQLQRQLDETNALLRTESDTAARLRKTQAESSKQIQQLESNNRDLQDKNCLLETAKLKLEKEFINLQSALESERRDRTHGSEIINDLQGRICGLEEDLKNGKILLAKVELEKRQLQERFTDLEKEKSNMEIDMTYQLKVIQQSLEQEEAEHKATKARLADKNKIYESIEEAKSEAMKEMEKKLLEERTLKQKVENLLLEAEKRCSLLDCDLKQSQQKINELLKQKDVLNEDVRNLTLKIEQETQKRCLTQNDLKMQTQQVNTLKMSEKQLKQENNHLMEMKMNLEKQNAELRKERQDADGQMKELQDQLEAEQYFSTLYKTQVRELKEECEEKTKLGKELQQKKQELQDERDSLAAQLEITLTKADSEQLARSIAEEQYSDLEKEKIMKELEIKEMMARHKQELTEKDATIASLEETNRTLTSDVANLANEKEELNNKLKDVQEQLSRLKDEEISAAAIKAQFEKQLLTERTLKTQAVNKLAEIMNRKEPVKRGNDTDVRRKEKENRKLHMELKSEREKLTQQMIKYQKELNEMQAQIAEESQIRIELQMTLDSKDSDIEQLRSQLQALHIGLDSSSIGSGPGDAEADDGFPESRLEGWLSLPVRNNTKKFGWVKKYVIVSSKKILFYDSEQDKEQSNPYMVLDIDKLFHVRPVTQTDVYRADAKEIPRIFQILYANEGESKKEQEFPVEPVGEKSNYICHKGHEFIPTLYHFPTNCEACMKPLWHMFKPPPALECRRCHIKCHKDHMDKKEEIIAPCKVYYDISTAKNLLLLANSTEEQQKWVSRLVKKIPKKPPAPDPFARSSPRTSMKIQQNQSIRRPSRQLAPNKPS
# Sequence of Rho-associated protein kinase 1 (Q13464 whole entry): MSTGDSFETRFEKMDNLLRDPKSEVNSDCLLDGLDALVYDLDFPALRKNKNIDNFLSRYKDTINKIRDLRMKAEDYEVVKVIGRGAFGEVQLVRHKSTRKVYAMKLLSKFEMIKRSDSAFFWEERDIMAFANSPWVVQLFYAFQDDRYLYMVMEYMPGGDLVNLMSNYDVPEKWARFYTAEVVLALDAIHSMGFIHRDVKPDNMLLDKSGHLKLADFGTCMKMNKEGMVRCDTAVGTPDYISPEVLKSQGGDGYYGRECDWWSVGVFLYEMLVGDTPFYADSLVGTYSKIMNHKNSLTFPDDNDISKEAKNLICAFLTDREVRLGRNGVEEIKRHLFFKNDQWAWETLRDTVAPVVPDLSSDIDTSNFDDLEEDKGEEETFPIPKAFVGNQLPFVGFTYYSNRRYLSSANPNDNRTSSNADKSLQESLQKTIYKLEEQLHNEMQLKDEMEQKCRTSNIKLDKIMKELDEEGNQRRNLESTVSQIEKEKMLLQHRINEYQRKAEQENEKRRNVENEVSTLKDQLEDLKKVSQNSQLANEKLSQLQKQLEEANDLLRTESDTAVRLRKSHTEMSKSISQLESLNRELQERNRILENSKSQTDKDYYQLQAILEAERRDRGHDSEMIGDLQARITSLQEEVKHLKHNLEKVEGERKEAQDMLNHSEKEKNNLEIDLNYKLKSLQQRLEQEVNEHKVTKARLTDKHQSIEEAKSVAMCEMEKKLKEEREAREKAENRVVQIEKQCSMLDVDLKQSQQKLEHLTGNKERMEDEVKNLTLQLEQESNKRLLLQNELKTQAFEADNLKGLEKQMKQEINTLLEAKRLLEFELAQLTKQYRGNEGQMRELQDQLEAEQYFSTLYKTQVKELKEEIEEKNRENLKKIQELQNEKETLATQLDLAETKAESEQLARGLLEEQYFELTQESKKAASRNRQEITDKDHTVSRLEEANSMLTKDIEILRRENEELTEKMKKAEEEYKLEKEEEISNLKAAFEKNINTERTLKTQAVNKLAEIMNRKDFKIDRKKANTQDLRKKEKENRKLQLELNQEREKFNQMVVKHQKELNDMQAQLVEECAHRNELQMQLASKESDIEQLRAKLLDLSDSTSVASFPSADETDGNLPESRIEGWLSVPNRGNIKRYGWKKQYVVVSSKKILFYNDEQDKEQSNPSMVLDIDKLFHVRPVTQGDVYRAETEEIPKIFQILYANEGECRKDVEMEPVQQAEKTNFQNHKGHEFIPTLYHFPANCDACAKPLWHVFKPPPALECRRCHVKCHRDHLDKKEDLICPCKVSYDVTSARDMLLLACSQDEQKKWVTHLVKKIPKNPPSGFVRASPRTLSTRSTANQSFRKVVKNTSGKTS
Compound,IC50 [1],further results
COc1cccc(CN2CCN(c3ccc4c(c3)CCc3n[nH]cc3-4)C2=O)c1,< 10 nM,–
c1cc(Oc2ccc3c(c2)CNCC3)c2c(-c3ccncc3)c[nH]c2c1,–,Ki [2]: < 3 nM; Ki [3]: < 3 nM
Cc1c[nH]c2nccc(Oc3ccc(Nc4cc(Cl)nc(N)n4)cc3F)c12,–,half-life [4]: 1.2 h; bioavailability [5]: 48%
NC(=O)c1ccccc1O[C@H]1C[C@]2(C1)C[C@H](N1C(=O)NC(c3ccccc3Cl)C1=O)C2 (stereo partly drawn),2 nM,–
COc1cccc(C(CO)NC(=O)c2cccc(-c3ccc4[nH]ncc4c3)c2)c1 (stereo not drawn),–,bioavailability [6]: 45%; half-life [7]: 2.9 h
Cc1c(C(=O)N[C@H]2C[C@]3(C2)C[C@H](c2n[nH]c(=O)c4ccccc42)C3)cnn1-c1ccccc1 (stereo partly drawn),0.2 nM,–
NC[C@@H](C(=O)Nc1ccc2cnsc2c1)c1ccc(CO)cc1,1.45 nM,–

# The next lines start with results.
IC50 [1],Compound,further results
14 nM,COc1cc(-c2cc(C)cc(C)n2)sc1C(=O)NCC(O)CO (stereo not drawn),–
< 5 nM,COc1cccc(Cn2cnn(-c3ccc(-c4cn[nH]c4)cc3)c2=O)c1,–
< 3 nM,COc1cccc(CN2C(=O)N(c3ccc(-c4cn[nH]c4)c(OC)c3)CC23CC3)c1,–
